Patent US20240417738A1, “IMMUNOTHERAPIES FOR THE TREATMENT OF CANCER” (Ohio State Innovation Foundation, priority 2021, published 2024)

What was measured:
MC38 cells = test: Cell viability assay (MTS); type: cell-based, murine; settings: (SEM)
Description: Cell Viability Assay. MC38 cells were seeded at 3000 cells/well in 96-well plates 24 hours before treatments. […] After 72 hour-treatment, cell viability was examined by CellTiter 96R AQueous One Solution (Promega, Madison, WI) per manufacturer protocol. The IC50 for R848 or IVM was determined by R programming.

[1] = Saturated solubility study in squalene NE and PBS; type: physicochemical; settings: 2 mg/ml, room temperature, 24 hours
Description: In the saturated solubility study, R848 or IVM were dissolved in PBS or formulated in NE at 2 mg/ml and incubated at room temperature for 24 hours. Insoluble solid drugs were pelleted down by centrifugation. Supernatants were collected for concentration analysis. R848 concentrations were quantified by UV-Vis spectrometry at 320 nm using a NanoDrop 2000 spectrophotometer. IVM concentrations were quantified by high-performance liquid chromatography (HPLC) using an isocratic mobile phase composed of water/methanol/acetonitrile (8:36:56, v/v/v), an C18 column (Kromasil 150-C-18, 4.6×150 mm), and PDA detection at 230 nm.

[2] = system: Calreticulin, Hmgb1, Lc3b mRNA in MC38 cells; test: In vitro gene regulation by RT-qPCR; type: cell-based, murine; settings: 8 μM, 24 hours
Description: MC38 cells were seeded at 3×10^5 cells/well in 6-well plates 24 hours before treatments. […] R848 and IVM were both treated at 8 μM, either as free drug solution or in squalene NE. Total RNA was extracted using TRI reagent (Zymo Research) per manufacturer protocol. cDNA was prepared by high-capacity cDNA reverse transcription kit (Invitrogen, Waltham, MA, USA), and real-time qPCR (RT-qPCR) was done using SsoAdvanced™ Universal SYBRR Green Supermix (Bio-Rad Laboratories, Hercules, CA) on a QuantStudio 7 Flex Real-time PCR System. RT-qPCR primers for murine Calreticulin, Hmgb1, Lc3b, and Actb were purchased from Sigma-Aldrich. Actb was selected as the housekeeping gene control. The relative amount of RNA level was calculated and compared according to the 2-ΔΔCt method.

## CC[C@H](C)[C@H]1O[C@]2(CC[C@@H]1C)C[C@@H]1C[C@@H](C/C=C(\C)[C@@H](O[C@H]3C[C@H](OC)[C@@H](O[C@H]4C[C@H](OC)[C@@H](O)[C@H](C)O4)[C@H](C)O3)[C@@H](C)/C=C/C=C3\CO[C@@H]4[C@H](O)C(C)=C[C@@H](C(=O)O1)[C@]34O)O2 [IVM]
MC38 cells; 72 hours
  IC50: 10.9 ± 4.15 µM
[1]
  Increase of solubility in squalene-based NE compared with PBS: 100 fold
[2]
  Calreticulin mRNA level: did not show significant Calreticulin regulation

## CCOCc1nc2c(N)nc3ccccc3c2n1CC(C)(C)O [R848, 4-amino-2-ethoxymethyl-α, α-dimethyl-1H-imidazol[4,5-c]quinoli-ne-1-ethanol]
MC38 cells; Mus musculus, MC-38, 72 hours
  IC50: > 100 µM
[1]
  Increase of solubility in squalene-based NE compared with PBS: 2 fold
